Reference: PMC9959553, “Promising Antifungal Molecules against Mucormycosis Agents Identified from Pandemic Response Box®: In Vitro and In Silico Analyses” (Journal of Fungi, 2023)
Values after ≈ are worked out from the molar mass of the structure shown.

Each compound was assayed on R. oryzae (assay: Antifungal susceptibility testing (broth microdilution, MIC and MFC)). Settings: Rhizopus arrhizus; lowest concentration that inhibits 50% of fungal growth, 48 h.
Type: cell-based, Rhizopus oryzae
Procedure: (§1) The susceptibility of the Rhizopus species to MMV396785 (alexidine), MMV1580844, MMV642550 and MMV019724 was determined using the broth microdilution method, according to EUCAST protocols, with modifications. Posaconazole and amphotericin B were also used as reference antifungal drugs because they are commonly used for the treatment of mucormycosis. […] A standardized suspension of conidia (2 × 10^5/mL) was added to the wells and incubated for 48 h at 37 °C, in a 5% CO2 atmosphere. Fungal growth was analyzed via spectrophotometry readings at 600 nm and cell viability was assessed using the XTT reduction assay. Minimum inhibitory concentration (MIC) of each compound was defined as the lowest concentration that inhibits 50% of fungal growth, because these fungi are highly resistant to antifungal drugs and a reduction in half of their growth is relevant. […] MFC values were defined as the lowest drug concentration able to arrest fungal growth.
`CC[C@@H]([C@H](C)O)n1ncn(-c2ccc(N3CCN(c4ccc(OC[C@@H]5CO[C@@](Cn6cncn6)(c6ccc(F)cc6F)C5)cc4)CC3)cc2)c1=O` [Posaconazole, reference compound] was tested, and the MIC50 was 1.25 µM (≈ 0.876 µg/mL).

Same assay, conditions: Rhizopus arrhizus; subculture in drug-free medium, 48 h
Work on `CC[C@@H]([C@H](C)O)n1ncn(-c2ccc(N3CCN(c4ccc(OC[C@@H]5CO[C@@](Cn6cncn6)(c6ccc(F)cc6F)C5)cc4)CC3)cc2)c1=O` [Posaconazole, reference compound] yielded an MFC of over 20 µM.

Each compound was assayed on R. oryzae UCP1295 (assay: Screening of the Pandemic Response Box library at 5 µM). Settings: 48 h, Table S1, mean of the four values.
Type: cell-based, Rhizopus oryzae
Method in brief: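 Compounds at 5 μM in RPMI 1640 with 2% glucose and MOPS (0.165 mol/L, pH 7.2), with conidia at 2 × 10^5/mL, incubated 48 h at 37 °C in 5% CO2. Growth read by OD at 600 nm; hits defined as ≥60% inhibition. Posaconazole (5 μM) and 1% DMSO as controls.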
With `O=[N+]([O-])/C(Br)=C/c1ccc(Br)o1` [MMV1645051] the “% of growth inhibition, Mean” value was -39.6%. `Nc1nc(O)c(Br)c(-c2cccc(Cl)c2)n1` [MMV1645152] was tested, and the “% of growth inhibition, Mean” value was 4.7%. `CCc1nc2ccccn2c1C(=O)NCc1ccccc1` [MMV1663457] was tested, and the “% of growth inhibition, Mean” value was -0.4%. With `O=C(NCc1ccc(F)cc1)c1c(O)c2ncccc2[nH]c1=O` [MMV1782097] the “% of growth inhibition, Mean” value was 3.9%. `CCCCN1C[C@H](O)[C@@H](O)[C@H](O)[C@H]1CO` [MMV1782098] was tested, and the “% of growth inhibition, Mean” value was -8.6%. With `COc1cc(C(C)(C)CCCC(C)C)cc(OC)c1OC` [MMV1782102] the “% of growth inhibition, Mean” value was -11.2%. For `COCCn1cnc2c(O)nc(Nc3ccccc3)nc21` [MMV1782103], the “% of growth inhibition, Mean” value was -15.7%. `NC(=O)c1nccn([C@@H]2O[C@H](CO)[C@@H](O)[C@H]2O)c1=O` [MMV1782104] was tested, and the “% of growth inhibition, Mean” value was -4.9%. In the case of `O=c1oc2ccc(Br)cc2cc1CSc1ncc[nH]1` [MMV1782105], the “% of growth inhibition, Mean” value was -13.4%. `CCc1cc(CCC(=O)Nc2ccccc2O)c(=O)[nH]c1C` [MMV1782106] was tested, and the “% of growth inhibition, Mean” value was -2.0%. `O=c1[nH]c(=O)n(Cc2cccc(Oc3ccccc3)c2)cc1Nc1ccccc1` [MMV1782107] was tested, and the “% of growth inhibition, Mean” value was -3.3%. With `CCCCc1ccc(S(=O)(=O)Nc2cc(C)on2)cc1` [MMV1782108] the “% of growth inhibition, Mean” value was -13.7%. With `O=C(N[C@H](Cc1cccc2ccccc12)C(=O)NCCc1c[nH]cn1)C1Cc2ccccc2C1` [MMV1782109] the “% of growth inhibition, Mean” value was -14.0%. In the case of `O=C(CCc1ccc2c(c1)OCO2)NCc1ccc(-c2ccccc2F)cc1` [MMV1782110], the “% of growth inhibition, Mean” value was -2.8%. For `CC(C)C(=O)N[C@H]1[C@H]([C@H](O)[C@H](O)CO)OC(C(=O)O)=C[C@@H]1N=[N+]=[N-]` [MMV1782111], the “% of growth inhibition, Mean” value was -12.9%. For `CCOC(=O)/C=C/[C@H](C[C@@H]1CCNC1=O)NC(=O)[C@H](CC)n1cccc(NC(=O)c2cc(C)on2)c1=O` [MMV1782112], the “% of growth inhibition, Mean” value was -11.8%. With `CCCC1(C2CC2)c2cc(Cl)ccc2NC(=O)N1C` (stereo not shown) [MMV1782113] the “% of growth inhibition, Mean” value was -5.2%. For `O=C(NN1C(=O)[C@@H]2C3C=CC([C@H]4C[C@@H]34)[C@@H]2C1=O)c1ccc(C(F)(F)F)cc1` [MMV1782114], the “% of growth inhibition, Mean” value was -5.7%. In the case of `COc1ccc2sc3c(c2c1)NC(C)CNC3=O` (stereo not shown) [MMV1782115], the “% of growth inhibition, Mean” value was -2.6%. In the case of `O=C(Nc1nnc(-c2ccc(Cl)cc2)o1)c1ccc(F)cc1` [MMV1782140], the “% of growth inhibition, Mean” value was -4.1%. With `CN1C(=O)C(c2ccccc2)C(=O)N(c2ccccc2)c2cc(C(F)(F)F)ccc21` (stereo not shown) [MMV1782208] the “% of growth inhibition, Mean” value was -7.5%. With `COc1ccc(C(C)(C)C)cc1NC(=O)C(=O)c1ccc(OCCN2CCOCC2)c2ccccc12` [MMV1782209] the “% of growth inhibition, Mean” value was -5.8%. With `Nc1nc2c(ncn2/C=C2/CC2(CO)CO)c(=O)[nH]1` [MMV1782210] the “% of growth inhibition, Mean” value was -16.4%. `C[C@@H](NC(=O)c1cccc(-c2cnc(-c3cc4ccccc4cn3)[nH]2)c1)c1ccc(F)cc1` [MMV1782211] was tested, and the “% of growth inhibition, Mean” value was 32.8%. `CC(C)(C)c1ccc(C(=O)NC(=O)N2CCCc3ccccc32)cc1` [MMV1782212] was tested, and the “% of growth inhibition, Mean” value was -4.9%. In the case of `O=C(CSc1nnc(Br)n1-c1ccc(C2CC2)c2ccccc12)Nc1ccc(C(=O)O)cc1Cl` [MMV1782213], the “% of growth inhibition, Mean” value was -4.3%.

Same assay, conditions: Rhizopus arrhizus, UCP1295, 48 h, Table S1, mean of the four values, read-out: % of growth inhibition, Mean
`CC[C@@H]([C@H](C)O)n1ncn(-c2ccc(N3CCN(c4ccc(OC[C@@H]5CO[C@@](Cn6cncn6)(c6ccc(F)cc6F)C5)cc4)CC3)cc2)c1=O` [Posaconazole, reference compound] showed an inhibition at 5 µM of 56.3%.

Same assay, conditions: Rhizopus arrhizus, UCP1295, 48 h, optical density 600 nm, read-out: Growth Inhibition
Compound `CC[C@@H]([C@H](C)O)n1ncn(-c2ccc(N3CCN(c4ccc(OC[C@@H]5CO[C@@](Cn6cncn6)(c6ccc(F)cc6F)C5)cc4)CC3)cc2)c1=O` [Posaconazole, reference compound] has an inhibition at 5 µM of 56%.

Same assay, conditions: XTT reduction
With `CC[C@@H]([C@H](C)O)n1ncn(-c2ccc(N3CCN(c4ccc(OC[C@@H]5CO[C@@](Cn6cncn6)(c6ccc(F)cc6F)C5)cc4)CC3)cc2)c1=O` [Posaconazole, reference compound] the “Viability Inhibition (XTT)” value was 73%.

The compounds below were run on R. oryzae, R. microsporus and R. stolonifer (assay: Antifungal susceptibility testing, values stated over the three species). Settings: over the three Rhizopus species.
Type: cell-based
Procedure: as §1
Work on `CC[C@@H]([C@H](C)O)n1ncn(-c2ccc(N3CCN(c4ccc(OC[C@@H]5CO[C@@](Cn6cncn6)(c6ccc(F)cc6F)C5)cc4)CC3)cc2)c1=O` [Posaconazole, reference compound] yielded an MFC of over 20 µM and an MIC of 0.63 to 2.5 µM (≈ 0.441 to 1.75 µg/mL).

What follows are compounds tested on R. oryzae (assay: Antifungal drug synergy assay, Bliss independence model). Settings: at MIC50.
Type: cell-based, Rhizopus oryzae
Procedure: (§2) Synergistic interactions were evaluated using the checkerboard method according to EUCAST guidelines (EUCAST 2008). R. oryzae conidia (2 × 10^5/mL) were grown in 96-well plates containing supplemented RPMI in the presence of the following selected compounds: […] An inhibition of at least 50% was defined as the cut-off for minimum inhibitory concentration (MIC). Interactions were determined by the fractional inhibitory concentration index (FICI), which was calculated using the following formula: (MIC combined/MIC drug A alone) + (MIC combined/MIC drug B alone). […] The Bliss independence model calculation was performed according to […] colleagues and Zhao and colleagues. The following formula was used to assess drug interaction: […] The results were classified as follows: synergistic effect when Eobs > Eexp; indifference when Eobs = Eexp; antagonistic effect when Eobs < Eexp.
For `CC[C@@H]([C@H](C)O)n1ncn(-c2ccc(N3CCN(c4ccc(OC[C@@H]5CO[C@@](Cn6cncn6)(c6ccc(F)cc6F)C5)cc4)CC3)cc2)c1=O` [Posaconazole, reference compound], the “Efficacy of Drugs Alone (% of Inhibition), MIC50” value was 63.4 % of Inhibition.

Same assay, conditions: at ½ MIC50
`CC[C@@H]([C@H](C)O)n1ncn(-c2ccc(N3CCN(c4ccc(OC[C@@H]5CO[C@@](Cn6cncn6)(c6ccc(F)cc6F)C5)cc4)CC3)cc2)c1=O` [Posaconazole, reference compound] was tested, and the “Efficacy of Drugs Alone (% of Inhibition), ½ MIC50” value was 6.5 % of Inhibition.

These compounds were tested on R. oryzae UCP1295 (assay: Antifungal drug synergy assay, checkerboard method (FICI)). Settings: Rhizopus arrhizus, UCP1295, 48 h; drug alone; read-out: MIC50 Alone.
Type: cell-based, Rhizopus oryzae
Procedure: as §2
Compound `CC[C@@H]([C@H](C)O)n1ncn(-c2ccc(N3CCN(c4ccc(OC[C@@H]5CO[C@@](Cn6cncn6)(c6ccc(F)cc6F)C5)cc4)CC3)cc2)c1=O` [Posaconazole, reference compound] has an MIC of 1.25 µM.

The compounds below were run on R. stolonifer (assay: Antifungal susceptibility testing (broth microdilution, MIC and MFC)). Settings: Rhizopus stolonifer; lowest concentration that inhibits 50% of fungal growth, 48 h.
Type: cell-based, Rhizopus stolonifer
Procedure: as §1
Work on `CC[C@@H]([C@H](C)O)n1ncn(-c2ccc(N3CCN(c4ccc(OC[C@@H]5CO[C@@](Cn6cncn6)(c6ccc(F)cc6F)C5)cc4)CC3)cc2)c1=O` [Posaconazole, reference compound] yielded an MIC50 of 0.63 µM (≈ 0.441 µg/mL).

Same assay, conditions: Rhizopus stolonifer; subculture in drug-free medium, 48 h
`CC[C@@H]([C@H](C)O)n1ncn(-c2ccc(N3CCN(c4ccc(OC[C@@H]5CO[C@@](Cn6cncn6)(c6ccc(F)cc6F)C5)cc4)CC3)cc2)c1=O` [Posaconazole, reference compound] showed an MFC of over 20 µM.

These compounds were tested on R. microsporus in the same assay as above. Settings: Rhizopus microsporus; lowest concentration that inhibits 50% of fungal growth, 48 h.
Type: cell-based, Rhizopus microsporus var. microsporus
Procedure: as §1
Compound `CC[C@@H]([C@H](C)O)n1ncn(-c2ccc(N3CCN(c4ccc(OC[C@@H]5CO[C@@](Cn6cncn6)(c6ccc(F)cc6F)C5)cc4)CC3)cc2)c1=O` [Posaconazole, reference compound] has an MIC50 of 2.5 µM (≈ 1.75 µg/mL).

Same assay, conditions: Rhizopus microsporus; subculture in drug-free medium, 48 h
For `CC[C@@H]([C@H](C)O)n1ncn(-c2ccc(N3CCN(c4ccc(OC[C@@H]5CO[C@@](Cn6cncn6)(c6ccc(F)cc6F)C5)cc4)CC3)cc2)c1=O` [Posaconazole, reference compound], the MFC was over 20 µM.
